Reference: patent publication US8058264B2, “Pharmaceutical compositions comprising CB1 cannabinoid receptor antagonists and potassium channel openers for the treatment of obesity and related conditions” (Abbott Products GmbH, priority 2004, dated 2011)

Columns and labels:
[1] = system: rat perifused pancreatic islets; assay: Insulin secretion in rat perifused pancreatic islets, simple screen at 11 mM glucose; format: cell-based; conditions: for effect on insulin secretion: 0-30 and 30-60 min
Experimental: (§1) Animals: Male Wistar rats in the weight range 175-200 g were group housed in standard animal cages at a temperature of 21±2° C. and humidity of 55±10%. Animals were maintained on a 12 h light-dark cycle (lights on 06.00-18.00 h) with free access to standard rodent diet (B&K Universal Ltd standard rat and mouse diet (BK 001P), Beekay Feeds, B&K Universal Ltd, Hull, East Riding of Yorkshire) and tap water. The rats were accustomed to these conditions for at least one week before experimentation.
(§2) Experimental procedures: After the rats were sacrificed, the branch of the bile duct leading to the liver and the duodenal end of the duct in the pancreas were clamped and the pancreas distended by injection of ice-cold 0.9 mg/ml collagenase solution into the bile duct. The pancreas were then removed and incubated statically for 10-12 min at 37° C. Following the incubation, 10 ml of cold buffer was added and the suspension shaken vigorously by hand for 1 min. The islets were allowed to settle for 5 min on ice and washed three times using ice-cold buffer. Well formed and good sized islets from 3 rats were hand-picked (under a low power microscope) and pooled and a final selection of islet transferred to the perifusion apparatus. Oxygenated (95% O2/5% CO2) Gey & Gey buffer containing 1 mg/ml bovine serum albumin and 4 mM glucose were used throughout the experiment unless otherwise stated (see Dickinson et al. Eur J Pharmacol 1997;339:69-76 for further details).
(§3) On each day, two experiments were performed in parallel in 2 identical, independent sets of perifusion apparatus each consisting of sufficient number of chambers. Each chamber was loaded with 20 hand-picked islets. Islets were perifused for an initial 30 min period in media containing 4 mM glucose. Perifusate was then collected at 2 min intervals for the remainder of the experiment.
Perifusate samples were then pooled to create 3 samples per chamber as follows: Baseline (4 mM): Samples 1-5 (first 10 minutes); 0-30 minutes (11 mM glucose): Samples 6-21; 30-60 minutes (11 mM glucose): Samples 22-36.
Perifusate fractions were stored at −75° C. until required for insulin assay. Insulin content of fractions were assayed using a 96-well ELISA assay (Mercodia). Initial insulin assays were performed in triplicate on three pooled fractions from each chamber (18 samples per experiment, 108 samples in total for 6 experiments).

hamster SUR1 = target: T1, hamster SUR1 (Cricetus cricetus, UniProt Q09427); assay: Competitive binding to sulfonylurea and KCO sites of SUR1 ([3H]glibenclamide displacement, COS-cell membranes); conditions: SUR1 versus SUR2 selectivity, in words
T1 construct: expressed in transfected cells; host or cells: COS-1 cells, transient transfection (pcDNA vector), membrane preparation
Experimental: Competitive binding experiments were performed to characterize the affinity of the test compounds for the binding sites for sulfonylureas and KATP channel openers (=KCOs) on hamster SUR1. To assess the affinity for the sulfonylurea site membranes from COS-cells transiently expressing hamster SUR1 were incubated in the presence of [^3H]glibenclamide with increasing concentrations of test compounds. […] Per curve 9-15 distinct concentrations were tested covering the relevant range. All measurements were repeated at least 5 times in independent experiments.
[^3H]glibenclamide (specific activity 51 Ci mmol^−1) was obtained from NEN (Dreieich, Germany). If suitable, stock solutions were prepared in dimethylsulfoxide with a final solvent concentration in the media below 1%.
SUR- or Kir6.x isoforms were used either subcloned in the pcDNA (hamster SUR1, mouse Kir6.2) or pCMV vector (rat SUR2A, SUR2B).
For transfection the cells were incubated 4 hours in a Tris-buffered salt solution containing DNA (5-10 μg/ml) plus DEAE-dextran (1 mg/ml), 2 min in HEPES-buffered salt solution plus dimethylsulfoxide (10%) and 4 hours in DMEM-HG plus chloroquine (100 μM). Cells were then returned to DMEM-HG plus 10% FCS. […] For binding experiments resuspended membranes (final protein concentration 5-50 μg/ml) were incubated in “Tris-buffer” (50 mM, pH 7.4) containing either [^3H]glibenclamide (final concentration 0.3 nM or 3 nM and nonspecific binding defined by 100 nM or 1 μM glibenclamide for SUR1 or SUR2Y1205S-isoforms, respectively) or [^3H]P1075 (final concentration 3 nM, nonspecific binding defined by 100 μM pinacidil) and increasing concentrations of the test compounds. […] Incubations were carried out for 1 h at room temperature and were terminated by rapid filtration through Whatman GF/B filters.
The inhibition constant (Ki value) of the test substances was calculated from the respective IC50 value, and was stated as the negative logarithmised value thereof (pKi).

[2] = system: male sugar rats [Ico: ZUCKER-fa/fa (fatty)]; assay: 2 week chronic administration: body weight gain in male sugar rats (ZUCKER-fa/fa); format: in vivo, rat; conditions: for decrease of body weight in comparison to vehicle-treated rats: day 14
Experimental: Studies were performed in male sugar rats [[Ico: ZUCKER-fa/fa (fatty) (Orl] (Charles River France) weighing initially 400 to 490 g. Animals were housed two or three in a plastic cage in a temperature (20-24° C.), relative humidity (45-65%) and 12-h light/dark cycle (light 7:00 a.m. to 7:00 p.m.)—controlled room for 6 days before being used. All animals had free access to filtered tap water and standard pelleted laboratory chow (U.A.R., Villemois-son-sur-Orge, France). Animals were individually identified on the tail.
At the end of the acclimatization period, animals were individually housed in wire-topped plastic cages. A pre-weighed quantity of food and water were placed on the roof grids. Each rat was acclimated to the handling and dosing procedure the 3 days preceding the start of treatment. Water and food intake was measured during the 24 h that followed dosing procedure to establish baseline food and water intake for each animal. Thereafter, the rats were randomly assigned to either vehicle or drug treatment groups.
Between 9:00-10:00 a.m. on the day of study, the animals were injected p.o. with either vehicle or differing doses of test compounds in a volume of 2 ml/kg each day for 14 consecutive days. During the 5-day post-treatment period, vehicle was given to all groups.
Daily food and water intake was determined per cage throughout the 14-day treatment period and the 5-day post-treatment period. Individual body weights were checked daily for the subsequent treatment and post-treatment periods. Data were collected before each dosing procedure.

[3] = system: rat perifused pancreatic islets; assay: Insulin secretion in rat perifused pancreatic islets, in depth investigation (Phase 1 and Phase 2); format: cell-based
Experimental: as §1, with “001 P),” for “001P),”
as §2, with “procedures: Three rats (sufficient for” for “procedures: After”, “the isolation of enough islets to allow for 2 perifusion experiments per day)” for “the rats”
as §3, with “was” for “was then”, “experiment. After the first 10 min of the experiment (to collect baseline insulin values), the media in each chamber were switched to one containing the relevant drug concentration/vehicle/glucose concentration and perifusate collected for a further 62 min to produce a total of 36 fractions for each chamber.” for “experiment.”
Experiments were organised to evaluate firstly (Phase I) the effect of Compounds at a single concentration on glucose-stimulated insulin secretion (two independent sets of experiments) and secondly (Phase II), determination of the dose-dependent effect of these compounds to inhibit insulin secretion at 11 mM glucose (three independent sets of experiments).
Perifusate fractions were stored at −75° C. until required for insulin assay. Insulin content of fractions were assayed using a 96-well ELISA assay (Mercodia). Initial insulin assays were performed on only every third fraction (72 assays per experiment).

[4] = system: glucose-stimulated insulin release; assay: Inhibition of glucose-stimulated insulin release (NN-414 versus diazoxide); format: cell-based

T1 sequence (Q09427 whole entry): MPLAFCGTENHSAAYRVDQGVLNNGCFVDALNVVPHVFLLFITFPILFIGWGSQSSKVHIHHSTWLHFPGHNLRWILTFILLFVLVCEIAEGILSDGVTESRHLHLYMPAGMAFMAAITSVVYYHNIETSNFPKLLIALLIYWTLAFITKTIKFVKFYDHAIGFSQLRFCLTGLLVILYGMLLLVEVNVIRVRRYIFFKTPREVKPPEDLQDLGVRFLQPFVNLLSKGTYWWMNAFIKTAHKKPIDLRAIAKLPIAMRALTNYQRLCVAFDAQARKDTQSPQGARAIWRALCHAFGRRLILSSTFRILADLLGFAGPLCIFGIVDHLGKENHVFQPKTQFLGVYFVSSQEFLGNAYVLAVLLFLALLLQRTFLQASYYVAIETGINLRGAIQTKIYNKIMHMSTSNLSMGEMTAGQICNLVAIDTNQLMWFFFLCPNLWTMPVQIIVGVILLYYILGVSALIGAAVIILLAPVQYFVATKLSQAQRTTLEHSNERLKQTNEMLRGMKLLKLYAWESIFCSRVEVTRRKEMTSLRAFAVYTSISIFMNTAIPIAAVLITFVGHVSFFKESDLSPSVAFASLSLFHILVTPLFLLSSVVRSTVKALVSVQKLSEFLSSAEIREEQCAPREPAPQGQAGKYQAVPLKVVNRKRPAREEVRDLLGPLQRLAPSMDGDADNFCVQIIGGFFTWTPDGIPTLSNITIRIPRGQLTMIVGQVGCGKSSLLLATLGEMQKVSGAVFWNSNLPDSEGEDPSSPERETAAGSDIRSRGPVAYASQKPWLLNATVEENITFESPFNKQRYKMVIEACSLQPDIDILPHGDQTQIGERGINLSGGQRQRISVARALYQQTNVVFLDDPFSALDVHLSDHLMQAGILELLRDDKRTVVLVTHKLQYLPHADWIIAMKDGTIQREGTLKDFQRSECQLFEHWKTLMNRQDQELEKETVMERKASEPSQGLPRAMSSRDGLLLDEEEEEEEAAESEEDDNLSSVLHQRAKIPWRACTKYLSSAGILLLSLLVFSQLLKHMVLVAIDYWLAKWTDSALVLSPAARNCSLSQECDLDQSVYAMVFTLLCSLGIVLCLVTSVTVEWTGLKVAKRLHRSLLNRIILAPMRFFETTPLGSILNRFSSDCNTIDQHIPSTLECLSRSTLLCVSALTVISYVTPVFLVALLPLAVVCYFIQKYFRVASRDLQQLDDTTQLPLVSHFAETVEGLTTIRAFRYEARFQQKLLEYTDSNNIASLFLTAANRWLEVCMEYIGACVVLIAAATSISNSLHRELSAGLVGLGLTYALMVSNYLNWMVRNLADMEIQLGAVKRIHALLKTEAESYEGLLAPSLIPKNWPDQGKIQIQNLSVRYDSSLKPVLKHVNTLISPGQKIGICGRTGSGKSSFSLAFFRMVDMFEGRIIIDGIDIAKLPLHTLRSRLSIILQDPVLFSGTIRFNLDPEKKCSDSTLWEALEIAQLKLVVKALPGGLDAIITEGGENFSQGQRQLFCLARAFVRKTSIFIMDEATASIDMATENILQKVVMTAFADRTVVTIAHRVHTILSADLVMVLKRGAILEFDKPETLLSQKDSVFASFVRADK

For CN[C@@H](Cc1c[nH]c2ccccc12)C(=O)N1CC(c2ccccc2)C(c2ccc(Cl)cc2)=N1 (stereo partly drawn) [Compound 1, (2S)-1-[3-(4-chlorophenyl)-4-phenyl-4,5-dihydro-1H-pyrazol-1-yl]-3-(1H-indol-3-yl)-N-methyl-1-oxopropan-2-amine], the “effect on insulin secretion” value [1] was “significantly inhibited insulin secretion” and the “pki (SUR1) compared with pki (SUR2)” value (hamster SUR1) was “pki (SUR1) larger than pki (SUR2)”.
CNC(=NS(=O)(=O)c1ccc(Cl)cc1)N1C[C@H](c2ccccc2)C(c2ccc(Cl)cc2)=N1 [Compound A, (4S)-3-(4-chlorophenyl)-N′-[(4-chlorophenyl)sulfonyl]-N-methyl-4-phenyl-4,5-dihydro-1H-pyrazole-1-carboximidamide] was tested, and the “decrease of body weight in comparison to vehicle-treated rats” value (shortened to “decrease of body weight in comparison”) ([2]; 3 mg/kg p.o. daily) was 5.3%, the “decrease of body weight in comparison” value ([2]; 10 mg/kg p.o. daily) was 6.7% and the “decrease of body weight in comparison” value ([2]; 30 mg/kg p.o. daily) was 5.9%. The “effect on body weight during treatment” value ([2]; 3, 10 and 30 mg/kg p.o., 14 days) was “sustained non dose-dependent reduction in body weight at all doses administered”, the “body weight on interruption of drug treatment” value ([2]; 5-day post-treatment period) was “progressively returned towards control levels” and the “effect on insulin secretion at 4 mM glucose” value ([3]; Phase 1, 10 μM, 4 mM glucose) was “no effect of compound A on insulin secretion at 4 mM glucose in two experiments and a slight effect to stimulate insulin secretion in one experiment”. For the same compound, the “effect on insulin secretion at 8 mM glucose” value ([3]; Phase 1, 10 μM, 8 mM glucose) was “completely inhibited insulin secretion at 8 mM glucose in two of the experiments and moderately inhibited insulin secretion in the third experiment”, the “effect on insulin secretion at 16 mM glucose” value ([3]; Phase 1, 10 μM, 16 mM glucose) was “moderate effect to inhibit insulin secretion in one experiment but only a slight effect in the other experiment” and the “dose dependency of effect on mean insulin secretion” value ([3]; Phase 2, 11 mM glucose) was “dose-dependent effects to inhibit mean insulin secretion”. For the same compound, the “doses at which inhibition of mean insulin secretion attained statistical significance” value ([3]; Phase 2, 11 mM glucose) was 3 µM and 10 µM, the “effect on time-dependent insulin secretion” value ([3]; Phase 2, 11 mM glucose, 10 μM) was “clearly more effective than the comparable (10 μM) dose of diazoxide” and the “reduction of mean insulin secretion” value ([3]; Phase 2, 11 mM glucose, 10 μM) was 74%. For the same compound, the “dose dependency of effect on time-dependent insulin secretion” value ([3]; Phase 2, 11 mM glucose, four doses) was “dose-dependent effects to block insulin secretion” and the “pki (SUR1) compared with pki (SUR2)” value (hamster SUR1) was “pki (SUR1) larger than pki (SUR2)”.
In the case of CC1(NC2=Nc3cc(Cl)sc3S(=O)(=O)N2)CC1 [NN-414], the “potency to inhibit glucose-stimulated insulin release relative to diazoxide” value [4] is reported as 100 times.
In the case of CNC(=NS(=O)(=O)c1ccc(C(F)(F)F)cc1)N1CC(c2cccnc2)C(c2ccc(Cl)cc2)=N1 (stereo not drawn) [Compound 4, 3-(4-chlorophenyl)-N-methyl-4-pyridin-3-yl-N′-{[4-(trifluoromethyl)phenyl]sulfonyl}-4,5-dihydro-1H-pyrazole-1-carboximidamide], the “amount of inhibition of insulin secretion compared with diazoxide” value [1] is reported as “notably greater than diazoxide at 30-60 min”, the “effect on insulin secretion” value [1] is reported as “significantly inhibited insulin secretion at both 0-30 and 30-60 min” and the “pki (SUR1) compared with pki (SUR2)” value (hamster SUR1) is reported as “pki (SUR1) larger than pki (SUR2)”.
For CNC(=NS(=O)(=O)N1CCCCC1)N1C[C@H](c2ccccc2)C(c2ccc(Cl)cc2)=N1 [Compound 3, (4S)-3-(4-chlorophenyl)-N-methyl-4-phenyl-N′-(piperidin-1-ylsulfonyl)-4,5-dihydro-1H-pyrazole-1-carboximidamide], the “amount of inhibition of insulin secretion compared with diazoxide” value [1] was “notably greater than diazoxide at 30-60 min” and the “effect on insulin secretion” value [1] was “significantly inhibited insulin secretion at both 0-30 and 30-60 min”.
In the case of CN(C)CCNC(=NS(=O)(=O)N1CCCCC1)N1CC(c2ccccc2)C(c2ccc(Cl)cc2)=N1 (stereo not drawn) [Compound 2, 3-(4-chlorophenyl)-N-[2-(dimethylamino)ethyl]-4-phenyl-N′-(piperidin-1-ylsulfonyl)-4,5-dihydro-1H-pyrazole-1-carboximidamide], the “effect on insulin secretion” value [1] is reported as “significantly inhibited insulin secretion (only at 0-30 min for compound 2)”.
With CC1=NS(=O)(=O)c2cc(Cl)ccc2N1 [Diazoxide, diazoxide, reference compound] the “effect on time-dependent insulin secretion” value ([3]; Phase 2, 11 mM glucose, 10 μM) was “only a partial inhibition”, the “reduction of mean insulin secretion” value ([3]; Phase 2, 11 mM glucose, 10 μM) was 50% and the “effect on time-dependent insulin secretion” value ([3]; Phase 2, 11 mM glucose, 100 μM) was “almost completely blocked the stimulatory effect of 11 mM glucose”. The “reduction of mean insulin secretion” value ([3]; Phase 2, 11 mM glucose, 100 μM) was 94%.
